A short description of this data set: Sustained release of metformin hydrochloride, ranitidine hydrochloride, vitamin B1 and benzalkonium chloride from carrier formulations into purified water, UV absorbance. In kind it is physicochemical. Particulars: released when absorbance is increased less than 0.01. The source says:
• 1) Test samples: formulation 5, formulation 6, formulation 7, formulation 8, formulation 9; • 2) Drug release medium: purified water (Wahaha®).
• 1) group F where the sample is 0.1990 g of formulation 6 and the medium is 30.11 g of purified water; • 2) group G where the sample is 0.2016 g of formulation 5 and the medium is 30.14 g of purified water; • 3) group H where the sample is 0.2087 g of formulation 7 and the medium is 30.11 g of purified water; • 4) group I where the sample is 0.2016 g of formulation 8 and the medium is 30.12 g of purified water; • 5) group J where the sample is 0.0975 g of formulation 9 and the medium is 30.18 g of purified water.
• 1) The test samples with different formulations were respectively introduced into 2 mL-syringes. 2) About 0.2 g of the test samples, but for benzalkonium chloride about 0.1 g of the test sample, were squeezed out from the syringes without a needle into 30 mL transparent bottles respectively. The tests samples in the bottles were accurately weighed. 3) 30.0 g of the drug release medium was added to each bottle. 4) The absorbance spectrum of the liquid in each bottle was scanned and the absorbance at the wavelength of 232 nm for metformin hydrochloride, 313 nm for ranitidine hydrochloride, 261 nm for vitamin B1, or 219 nm for benzalkonium chloride was measured every 24 hours. 5) In groups H, I and J, the purified water (Wahaha®) was used as the reference solution. In groups F and G, blank carriers in formulations 2 and 3 without metformin hydrochloride were used to prepare the reference solutions according to the above steps 1) to 3) of “4. Experimental method”. The liquids to be tested and the reference solutions of groups F and G were taken from the bottles with the carriers and put back to the bottles after the spectral scanning.

Counter-ions that a name gives are not always drawn.

From patent US20240122844A1, “CARRIER FOR SUSTAINED-RELEASE OF DRUG AND USE THEREOF” (KUNMING QINGCHENG HEALTHCARE TECH LTD., priority 2022, published 2024) come the findings set out here.

In the case of `CN(C)C(=N)N=C(N)N` [metformin hydrochloride], the “Duration of release of the drug from the sustained-release carriers” value is on record as “about 3 days”. The value for `CNC(=C[N+](=O)[O-])NCCSCc1ccc(CN(C)C)o1` [ranitidine hydrochloride] was “about 4 days”; that for benzalkonium chloride was “about 4 days”. Consider `Cc1ncc(C[n+]2csc(CCO)c2C)c(N)n1` [vitamin B1], for which the “Duration of release of the drug from the sustained-release carriers” value was “about 4 days”.
